From PubChem BioAssay (NCI)
Values joined by “and” are separate entries in the source; they are usually repeats but may differ in a detail not shown here. Identical values can stand only once.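 Tested at 5 concentrations; 48 h exposure; 96-well plates; endpoints linearly interpolated, else capped at highest concentration. GI50 = concentration required for 50% inhibition of growth. TGI marks complete inhibition of growth.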

How the values were obtained:
Assay in all cases: NCI anticancer screen, dose series, 48 h
SN12C renal = test system: SN12C renal
A498 renal = test system: A498 renal
SNB-75 CNS = test system: SNB-75 CNS
SNB-19 CNS = test system: SNB-19 CNS
NCI-H226 lung = test system: NCI-H226 lung
MOLT-4 leukemia = test system: MOLT-4 leukemia
LOX IMVI melanoma = test system: LOX IMVI melanoma
PC-3 prostate = test system: PC-3 prostate
NCI-H23 lung = test system: NCI-H23 lung
RXF 393 renal = test system: RXF 393 renal

| Structure (SMILES) | GI50 (SN12C renal) | TGI (SN12C renal) | GI50 (A498 renal) | TGI (A498 renal) | GI50 (SNB-75 CNS) | TGI (SNB-75 CNS) | GI50 (SNB-19 CNS) | TGI (SNB-19 CNS) | GI50 (NCI-H226 lung) | TGI (NCI-H226 lung) | GI50 (MOLT-4 leukemia) | TGI (MOLT-4 leukemia) | GI50 (LOX IMVI melanoma) | TGI (LOX IMVI melanoma) | GI50 (PC-3 prostate) | TGI (PC-3 prostate) | GI50 (NCI-H23 lung) | TGI (NCI-H23 lung) | GI50 (RXF 393 renal) | TGI (RXF 393 renal) |
| --- | --- | --- | --- | --- | --- | --- | --- | --- | --- | --- | --- | --- | --- | --- | --- | --- | --- | --- | --- | --- |
| Cc1cc(N2CCCC2)nc(N(CCCNc2ccnc3cc(Cl)ccc23)Cc2ccc3c(c2)OCO3)n1 | 1.76 µM | 11.3 µM | 2.44 µM | 7.5 µM | 1.54 µM | 4.33 µM | 2.45 µM | 12.7 µM | 5.2 µM | 33.8 µM | 1.3 µM | 4.64 µM | 1.03 µM | 2.35 µM | 1.47 µM | 12 µM | 2.36 µM | 15.5 µM | – | – |
| Cn1cc(-c2ccc(CNc3cc(-c4cnc5cc(OCCCN6CCCC6)ccn45)ncn3)cc2)cn1 | 1.82 µM | 3.61 µM | 16.2 µM | 31.9 µM | 1.79 µM | 7.78 µM | 2.5 µM | 8.43 µM | 2.03 µM | 4.81 µM | 2.76 µM | > 100 µM | 1.75 µM | 3.4 µM | 3.63 µM | > 100 µM | – | – | 1.61 µM | 3.33 µM |
| O=[N+]([O-])c1nccn1CC1OC(n2ccnc2[N+](=O)[O-])C(O)C(O)C1O (stereo unspecified) | – | – | – | > 100 µM | – | > 100 µM | – | > 100 µM | – | > 100 µM | – | > 100 µM | – | – | – | > 100 µM | – | > 100 µM | – | > 100 µM |
| Cn1cc(-c2ccc3c(c2)CCN3C(=O)Cc2cccc(C(F)(F)F)c2)c2c(N)ncnc21 | 2.48 µM | 19.6 µM | 0.453 µM | 6.56 µM | 2.76 µM | 19 µM | 7.06 µM | 22.9 µM | 3.85 µM | 19.1 µM | 3.55 µM | 18.6 µM | 3.12 µM | 16.3 µM | 4.86 µM | 28.7 µM | 4.43 µM | 24.2 µM | 3.46 µM | 19.5 µM |
| Fc1ccc(Nc2nccc(-c3c(-c4ccc(C(F)(F)F)cc4)nn4ncccc34)n2)cc1F | > 25 µM | > 25 µM | > 25 µM | > 25 µM | > 25 µM | > 25 µM | > 25 µM | > 25 µM | > 25 µM | > 25 µM | > 25 µM | > 25 µM | > 25 µM | > 25 µM | > 25 µM | > 25 µM | > 25 µM | > 25 µM | > 25 µM | > 25 µM |
| CC(C)(Br)C(=O)/C=C/c1ccccc1 | – | 22.5 µM | – | 36.9 µM | – | 32.6 µM | – | 78.3 µM | – | 24 µM | – | > 43.7 µM | – | 9.75 µM | – | 33.7 µM | – | 5 µM | – | 3.12 µM |
| CCc1c2c(nc3cccc(N)c13)-c1cc3c(c(=O)n1C2)COC(=O)[C@]3(O)CC | < 0.001 µM | 38.7 µM | 0.0569 µM | 0.487 µM and 0.0609 µM | 0.0158 µM | 16.9 µM | 0.00176 µM | 0.0512 µM | 0.00208 µM | 0.157 µM | < 0.001 µM | 0.15 µM | 0.00461 µM | 0.182 µM | 0.349 µM | > 100 µM | 0.00327 µM | – | 0.0636 µM | – |
| C[C@H](CSC(=O)c1ccccc1)C(=O)N1c2ccccc2C[C@H]1C(=O)O | – | > 100 µM | – | > 100 µM | – | > 100 µM | – | > 100 µM | – | > 100 µM | – | > 100 µM | – | – | – | > 100 µM | – | > 100 µM | – | – |
| CCOC(=O)c1cnn(-c2ccnc3c(C(F)(F)F)cccc23)c1N | > 100 µM | > 100 µM | > 100 µM | > 100 µM | 51.7 µM | > 100 µM | > 100 µM | > 100 µM | > 100 µM | > 100 µM | > 100 µM | > 100 µM | > 100 µM | > 100 µM | > 100 µM | > 100 µM | > 100 µM | > 100 µM | > 100 µM | > 100 µM |
| C/C(=N\NC(N)=O)C(CN(C)C)C(c1ccccc1)c1c(O)c2ccccc2oc1=O (stereo unspecified) | – | > 100 µM | – | > 100 µM | – | > 100 µM | – | > 100 µM | – | > 100 µM | – | > 100 µM | – | > 100 µM | – | > 100 µM | – | > 100 µM | – | > 100 µM |
| COc1cc2cc(Oc3ccc(NC(=O)c4ccc(Cl)c(C(F)(F)F)c4)cc3)c(C)nc2cc1OC | 13.2 µM | > 100 µM | 2.42 µM | 86.3 µM | 16.4 µM | > 100 µM | 24.6 µM | > 100 µM | 19.6 µM | > 100 µM | 9.7 µM | 70.5 µM | 7.59 µM | > 100 µM | 4.3 µM | > 100 µM | 9.73 µM | > 100 µM | 9.04 µM | > 100 µM |
| Fc1ccc(Nc2nc(NCCNc3ccnc4cc(Cl)ccc34)nc(N3CCOCC3)n2)cc1 | 11.6 µM | 25 µM | 1.48 µM | 8.47 µM | 3.13 µM | 16.2 µM | 12.4 µM | 25.9 µM | 14.4 µM | 33.4 µM | 4.16 µM | 16.5 µM | 2.95 µM | 10.1 µM | 4.87 µM | 18.5 µM | 14.6 µM | 30.2 µM | 1.89 µM | 6.76 µM |
| CN(C)c1ccc(N=Nc2c([O-])ccc3ccccc23)cc1.[C-]#[O+].[C-]#[O+].[Ir] | 17 µM | 34.5 µM | > 100 µM | > 100 µM | 54.8 µM | > 100 µM | > 100 µM | > 100 µM | > 53.9 µM | > 100 µM | 12.6 µM | 59.5 µM | 18.6 µM | 40.5 µM | 17.7 µM | 34.5 µM | 19.4 µM | 54.9 µM | 18.3 µM | 32.9 µM |
| COc1cnc2c(c1)C(=O)c1c-2n(CCCN2CCCC2)c(=O)c2cc(Cl)ccc12 | – | – | 0.384 µM | 6.01 µM | 0.347 µM | 7.79 µM | 1.03 µM | 11.7 µM | 3.27 µM | 14.4 µM | 0.0193 µM | 6.23 µM | 0.0423 µM | 5.96 µM | 0.859 µM | 9.48 µM | 0.857 µM | 9.16 µM | 0.705 µM | 5.82 µM |
| CCN1C(=O)N(CC)C2C1NN=c1s/c(=C3\C(=O)N(C)c4ccccc43)c(=O)n12 (stereo unspecified) | 2.89 µM | > 100 µM | 0.23 µM | 0.908 µM | 0.397 µM | 20.3 µM | 2.89 µM | > 100 µM | 1.45 µM | > 100 µM | 1.7 µM | > 100 µM | 0.958 µM | > 100 µM | 1.14 µM | > 100 µM | 3.24 µM | > 88.1 µM | 0.587 µM | 4.81 µM |
| CC(C)OC(=O)c1ccc2[nH]c(O)c(C(=Nc3ccc(N(C)C(=O)CN4CCN(C)CC4)cc3)c3ccccc3)c2c1 | 0.0977 µM | 1.6 µM | 0.188 µM | 1 µM | 0.101 µM | 1.54 µM | 0.921 µM | 2.33 µM | 1.1 µM | 2.83 µM | 0.274 µM | 2.16 µM | 0.298 µM | 1.43 µM | 0.494 µM | 2.17 µM | 0.583 µM | 2.42 µM | 0.224 µM | 0.652 µM |
| CCOC(=O)N1CCN(S(=O)(=O)c2oc(-c3ccc(Cl)cc3)nc2C#N)CC1 | 1.66 µM | 3.23 µM | 17.2 µM | > 100 µM | 11.4 µM | > 100 µM | 14.6 µM | 50.7 µM | 64.3 µM | > 100 µM | 0.739 µM | 4.35 µM | 0.573 µM | 2.02 µM | 2.24 µM | 5.77 µM | 3.93 µM | 15.1 µM | 1.82 µM | 3.25 µM |
| COc1ccc(/C=C2\CCCC3=C2NC(C)=NC3c2ccc(OC)c(OC)c2)cc1OC (stereo unspecified) | 63.9 µM | > 100 µM | 16.4 µM | > 100 µM | 32 µM | > 100 µM | 67.1 µM | > 100 µM | 12.2 µM | 99.8 µM | 24.8 µM | > 100 µM | 51.1 µM | > 100 µM | 37.4 µM | > 100 µM | 28.6 µM | > 100 µM | 4.02 µM | 16.3 µM |
| CCCCC[C@H]1C/C=C2/C(=O)C(Cl)=C[C@@H]2C/C=C\CCCC(=O)O[C@@H](CCCCC)C/C=C2/C(=O)C(Cl)=C[C@@H]2C/C=C\CCCC(=O)O1 | 0.482 µM | 2.72 µM | 0.465 µM | 1.41 µM | 0.544 µM | 3.89 µM | 0.549 µM | 2.24 µM | 0.38 µM | 0.86 µM | 0.234 µM | 1.71 µM | 0.201 µM | 0.437 µM | 0.368 µM | 1.08 µM | 0.34 µM | 0.838 µM | 0.297 µM | 0.576 µM |
| O=c1[nH]cnc2c(C3OC(CO)C(O)C3O)scc12 (stereo unspecified) | > 100 µM | > 100 µM | > 100 µM | > 100 µM | > 100 µM | > 100 µM | > 100 µM | > 100 µM | > 100 µM | > 100 µM | – | – | 43.9 µM | > 100 µM | 37.9 µM | > 100 µM | > 100 µM | > 100 µM | > 100 µM | > 100 µM |
